How the values were obtained:
[1] = molecular target: GHSR1a + DRD2 (Homo sapiens, UniProt P14416+Q92847); format: cell-based
[2] = tested on: mice (ghsr+/+, ghsr−/−, ghrelin+/+, ghrelin−/−); assay: Food intake experiments in mice; format: in vivo, mouse; conditions: for food intake compared to vehicle: 0.5 mg/kg i.p.
[3] = tested on: humans; conditions: ref Korner et al., 2003; cited from earlier work
[4] = tested on: primary cultures of hypothalamic neurons; assay: Fluo-4 Ca2+ mobilization in primary hypothalamic neurons; format: cell-based, mouse; conditions: quinpirole 10 µM; ghrelin 100 nM after washing
[5] = molecular target: GHSR1a and DRD2 co-expressed in SH-SY5Y cells (SH-GHSR1a) (Homo sapiens, UniProt P14416+Q92847); format: cell-based; conditions: quinpirole 10 µM; pretreatment 5 min
[6] = molecular target: SNAP-M213K-GHSR1a (UniProt Q92847); assay: FRET or BRET
[7] = molecular target: SNAP-F279L-GHSR1a (UniProt Q92847); assay: FRET or BRET
[8] = molecular target: SNAP-GHSR1a (growth hormone secretagogue receptor / ghrelin receptor with a SNAP-tag at the N-terminus) (UniProt Q92847); assay: FRET or BRET
[9] = tested on: rats; conditions: 6 day central infusion, ref Petersen et al., 2009; cited from earlier work
[10] = molecular target: SNAP-GHSR1a (Homo sapiens, UniProt Q92847); assay: Tr-FRET red-ghrelin binding assay in HEK293 cells expressing SNAP-GHSR1a
Sequence of SNAP-GHSR1a (Q92847 whole entry): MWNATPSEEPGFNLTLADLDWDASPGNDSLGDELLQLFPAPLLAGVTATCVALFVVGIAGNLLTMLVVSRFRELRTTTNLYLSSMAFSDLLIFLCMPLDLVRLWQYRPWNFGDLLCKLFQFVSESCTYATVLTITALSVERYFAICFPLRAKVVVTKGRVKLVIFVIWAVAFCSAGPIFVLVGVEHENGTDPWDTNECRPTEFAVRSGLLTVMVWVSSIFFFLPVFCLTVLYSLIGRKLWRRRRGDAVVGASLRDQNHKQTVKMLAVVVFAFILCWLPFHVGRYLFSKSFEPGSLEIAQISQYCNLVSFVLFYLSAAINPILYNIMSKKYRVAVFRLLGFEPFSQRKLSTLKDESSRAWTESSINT

Sequence of HA-CLIP-DRD2 (P14416 whole entry): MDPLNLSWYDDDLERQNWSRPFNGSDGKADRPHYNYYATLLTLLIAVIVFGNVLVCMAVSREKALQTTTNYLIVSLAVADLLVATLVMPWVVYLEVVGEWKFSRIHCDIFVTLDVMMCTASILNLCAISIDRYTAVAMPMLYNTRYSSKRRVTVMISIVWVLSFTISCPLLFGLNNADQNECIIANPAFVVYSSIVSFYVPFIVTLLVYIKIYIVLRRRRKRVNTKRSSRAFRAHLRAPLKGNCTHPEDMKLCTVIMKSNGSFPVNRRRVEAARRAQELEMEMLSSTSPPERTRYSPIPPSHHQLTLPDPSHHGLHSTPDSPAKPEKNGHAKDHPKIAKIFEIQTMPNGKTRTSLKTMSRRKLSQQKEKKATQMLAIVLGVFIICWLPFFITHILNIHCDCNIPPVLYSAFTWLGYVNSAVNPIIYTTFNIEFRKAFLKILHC
Sequence of GHSR1a + DRD2 (Q92847 whole entry): as the sequence (Q92847 whole entry) above
Sequence of GHSR1a + DRD2 (P14416 whole entry): as the sequence (P14416 whole entry) above
Sequence of SNAP-M213K-GHSR1a (Q92847 whole entry M213K): as the sequence (Q92847 whole entry) above, with M213K counted along it
Sequence of GHSR1a and DRD2 co-expressed in SH-SY5Y cells (SH-GHSR1a) (Q92847 whole entry): as the sequence (Q92847 whole entry) above
Sequence of GHSR1a and DRD2 co-expressed in SH-SY5Y cells (SH-GHSR1a) (P14416 whole entry): as the sequence (P14416 whole entry) above
Sequence of SNAP-GHSR1a (growth hormone secretagogue receptor / ghrelin receptor with a SNAP-tag at the N-terminus) (Q92847 whole entry, the tested form may be a part): as the sequence (Q92847 whole entry) above
Sequence of SNAP-F279L-GHSR1a (Q92847 whole entry F279L): as the sequence (Q92847 whole entry) above, with F279L counted along it

NCCOB(c1ccccc1)c1ccccc1 [2-aminoethoxydiphenyl borate]
effect on dopamine-induced Ca2+ signaling [1]: blocked

CN1CCc2cc(Cl)c(O)cc2[C@@H](c2ccccc2)C1 [SCH23390]
effect on dopamine-induced Ca2+ signaling [1]: ineffective

Oc1cc2c(c(Cl)c1O)CCNCC2c1ccccc1 (stereo not drawn) [SKF81297]
effect of preincubation on ghrelin-induced Ca2+ response ([1]; 30 min preincubation, ghrelin 100 nM): fails to inhibit

C=CCN1C[C@H](C(=O)N(CCCN(C)C)C(=O)NCC)C[C@@H]2c3cccc4[nH]cc(c34)C[C@H]21 [cabergoline]
agonist-induced increase of [Ca2+]i ([1]; cells co-expressing GHSR1a + DRD2): dose-dependent mobilization of Ca^2+
food intake compared to vehicle ([2]; ghrelin+/+ and ghrelin−/− mice): significantly reduced food intake irrespective of genotype
food intake compared to vehicle ([2]; ghsr+/+ mice, within 2 h): markedly reduced
food intake compared to vehicle ([2]; ghsr−/− mice): unaffected
food intake ([2]; mice, cabergoline 0.5 mg/kg and 2 mg/kg): dose dependent suppression of food intake
body weight in treated humans [3]: weight loss

CCCCCCCC(=O)OC[C@H](NC(=O)[C@H](CO)NC(=O)CN)C(=O)N[C@@H](Cc1ccccc1)C(=O)N[C@@H](CC(C)C)C(=O)N[C@@H](CO)C(=O)N1CCC[C@H]1C(=O)N[C@@H](CCC(=O)O)C(=O)N[C@@H](Cc1c[nH]cn1)C(=O)N[C@@H](CCC(N)=O)C(=O)N[C@@H](CCCNC(=N)N)C(=O)N[C@H](C(=O)N[C@@H](CCC(N)=O)C(=O)N[C@@H](CCC(N)=O)C(=O)N[C@@H](CCCNC(=N)N)C(=O)N[C@@H](CCCCN)C(=O)N[C@@H](CCC(=O)O)C(=O)N[C@@H](CO)C(=O)N[C@@H](CCCCN)C(=O)N[C@@H](CCCCN)C(=O)N1CCC[C@H]1C(=O)N1CCC[C@H]1C(=O)N[C@@H](C)C(=O)N[C@@H](CCCCN)C(=O)N[C@@H](CC(C)C)C(=O)N[C@@H](CCC(N)=O)C(=O)N1CCC[C@H]1C(=O)N[C@@H](CCCNC(=N)N)C(=O)O)C(C)C [ghrelin]
Ca2+ response in primary hypothalamic neurons [4]: immediate Ca^2+ response

CCN1CCC[C@H]1CNC(=O)c1c(O)c(Cl)cc(Cl)c1OC [raclopride]
effect on dopamine-induced Ca2+ signaling [1]: dose-dependently inhibited
effect on quinpirole-induced Ca2+ signal [5]: Attenuation of the Ca^2+ signal

CCN1CCCC1CNC(=O)c1cc(S(N)(=O)=O)ccc1OC (stereo not drawn) [sulpiride]
effect on dopamine-induced Ca2+ signaling [1]: dose-dependently inhibited
effect on ghrelin-induced Ca2+ mobilization ([1]; GHSR1a+DRD2 cells, ghrelin 100 nM): partially inhibited

HA-CLIP-DRD2 (from UniProt P14416 1-443) (receptor)
FRET50 [6]: 0.79
FRET50 [7]: 0.49
FRET50 [8]: 0.086

JMV2959
effect on cabergoline-induced suppression of food intake ([2]; ghsr+/+ mice, JMV2959 0.2 mg/kg i.p. 30 min before cabergoline 0.5 mg/kg): prevented
effect on food intake in cabergoline treated mice ([2]; ghsr−/− mice, JMV2959 0.2 mg/kg i.p. 30 min before cabergoline 0.5 mg/kg): unaffected

[D-Arg1,D-Phe5,D-Trp7,9,Leu11]-substance P
food intake and weight gain [9]: modest reductions in food intake and weight gain

des-acyl ghrelin
inhibition of red ghrelin binding [10]: ineffective
